In ChEMBL document CHEMBL1157539, “Thousands of chemical starting points for antimalarial lead identification” (Nature, 2010):

Test system: Plasmodium falciparum
Assay: GSK_TCMDC: Inhibition of Plasmodium falciparum 3D7 in whole erythrocytes, using parasite LDH activity as an index of growth.
Type: functional, organism-based
Conditions: Plasmodium falciparum, 3D7

| SMILES | XC50 [nM] |
| --- | --- |
| CS(=O)(=O)CCOCc1ccc(-c2ccc3ncnc(Nc4ccc(OCc5cccc(F)c5)c(Cl)c4)c3c2)o1 | 803 |
| Cc1ccc(CNc2cc(C(F)(F)F)nc(-c3ccc(S(C)(=O)=O)cc3)n2)cc1 | 498 |
| CN1CC=C(c2c[nH]c3ccc(Br)cc23)CC1 | 1190 |
| CS(=O)(=O)CCNCc1ccc(-c2cc3c(Nc4ccc(OCc5cccc(F)c5)c(Cl)c4)ncnc3s2)[nH]1 | 844 |
| CN(C)Cc1ccc2nc(-c3cccc(Cc4cc(Cl)ccc4OCc4ccc(Cl)cc4F)n3)[nH]c2c1 | 1130 |
| NC(=O)N1CCN(Cc2ccc(Br)cc2)CC1 | 619 |
| CC(C)(C)n1nnnc1C(c1cccnc1)N(Cc1ccccc1)Cc1ccc(Cl)cc1 (stereo not drawn) | 744 |
| CN1CCN(c2ccc3[nH]c(-c4ccc5[nH]c(-c6ccc(O)cc6)nc5c4)nc3c2)CC1 | 121 |
| Cc1cc(NCCc2ccc(O)cc2)nc(NCC(c2ccccc2)c2ccccc2)n1 | 320 |
| CC(N)(Cc1ccc(O)cc1)c1nnn[nH]1 (stereo not drawn) | 969 |
| CCOc1ccc(Nc2cc(C)nc(Nc3ccc(OCC)cc3)n2)cc1 | 869 |
| COc1ccc(-n2ccnc2SCC(=O)Nc2cc(C(F)(F)F)ccc2Cl)c(OC)c1 | 35 |
| O=C(NC1CC1)c1ccc(N2CCC(COc3cccc(F)c3)CC2)nc1 | 1240 |
| CCN(CC)/C(=N\C(=N)NCCCCCCNC(=N)/N=C(\Nc1ccc(Cl)cc1)N(CC)CC)Nc1ccc(Cl)cc1 | 927 |
| c1cnc2ccc(NCc3ccc(-c4ccc(CNC5CCCC5)cc4)cc3)cc2c1 | 874 |
| Cc1ccc(CNC(=O)[C@H](CC(C)C)Nc2cc(C)nc(Nc3ccccc3)n2)cc1 | 1770 |
| O=C(Nc1ccccc1)c1c[nH]cn1 | 991 |
| Nc1c(Cl)cc(C(O)CNCCCCCOCCc2ccccc2)cc1C(F)(F)F (stereo not drawn) | 978 |
| COc1ccccc1C(=O)N1CCN(Cc2cccs2)CC1 | 869 |
| Oc1ccccc1CNCC(O)c1cc(C(F)(F)F)cc(C(F)(F)F)c1 (stereo not drawn) | 184 |
| O=C(NC1CCC(N2CCC(c3nc4ccccc4s3)CC2)CC1)c1cc2ccccc2[nH]1 (stereo not drawn) | 926 |
| COc1ccc(NC(=O)Nc2ccc(Nc3nc(C)cc(N4CCCC4)n3)cc2)cc1 | 135 |
| CN1CCCc2cc(NC(=O)c3cc(-c4ccc(Cl)cc4)cs3)ccc2C1 | 810 |
| CCc1cc(NC(=O)Nc2ccnc3ccccc23)ccc1OC | 138 |
| CC(Sc1nc2sccc2c(=O)n1C)C(=O)Nc1ccc2c(c1)OCO2 (stereo not drawn) | 1040 |

| SMILES | XC50 [nM] |
| --- | --- |
| O=C(/C=C/c1ccc(Cl)c(Cl)c1)NCCCCCN1CCC(NC(=O)c2cc(Cl)ccc2F)CC1 | 1160 |
| CC(Cc1ccc(Cl)cc1)Nc1nc(NC2CCCC2)nc(N2CCC(C#N)(c3ccccc3)CC2)n1 (stereo not drawn) | 715 |
| CNC(=O)c1ccc2[nH]cc(C3CCN(CC4CCC(NC(=O)/C=C/c5ccc(Cl)c(Cl)c5)CC4)CC3)c2c1 (stereo not drawn) | 1010 |
| CC1CCN(C(=O)[C@H](Cc2c[nH]c3ccccc23)NS(=O)(=O)c2ccc(Cl)cc2)CC1 | 667 |
| Cc1cccc2nc(-c3ccc(-c4ccc(CN5CCCC(O)C5)cc4)cc3)[nH]c12 (stereo not drawn) | 859 |
| Cc1cccc(C)c1OC(=O)CSc1nnc(-c2ccccc2O)o1 | 884 |
| O=C(Nc1cccc(-c2ccc(CN3CCC(O)CC3)cc2)c1)c1ccc(Cl)cc1 | 961 |
| Oc1ccc(CCNc2nc(NCc3ccccc3Oc3ccc(C(F)(F)F)cc3)nc(N3CCNCC3)n2)cc1 | 1160 |
| COc1ccc(NC(=O)NC2CCN(CCCOc3cc(C)nc4ccccc34)CC2)cc1OC | 1280 |
| CC(C)CN1CCCN(Cc2cccc(NC(=O)c3cc4ccccc4s3)c2)CC1 | 1770 |
| C=C[C@H]1CN(CCCCCCC)CC[C@H]1CC(O)Cc1ccnc2cc(O)c(OC)cc12 (stereo partly drawn) | 818 |
| O=C(N1CCN(c2ccc(C(F)(F)F)cc2[N+](=O)[O-])CC1)C(Cl)(Cl)Cl | 713 |
| CC1CCC2(CC1)N=C(N)N=C(N)N2OCc1cc2ccccc2c2ccccc12 (stereo not drawn) | 243 |
| CC(C)C[C@H](Nc1ccnc(NCC2CCCCC2)n1)C(=O)NCCc1ccccc1 | 750 |
| N#C/N=C(\NCCCCCCCCN/C(=N\C#N)NCCSCc1csc(N=C(N)N)n1)NCCCSc1csc(N=C(N)N)n1 | 844 |
| CN(C(=O)C(C)(C)Oc1ccc(Cl)cc1)C1CCN(CCCCCNC(=O)/C=C/c2ccc(Cl)c(Cl)c2)CC1 | 916 |
| COc1ccc2nc(-c3ccccc3)cc(NCCCNc3cc(-c4ccccc4)nc4ccc(OC)cc34)c2c1 | 122 |
| Cn1c(NC(=O)C2CCC(CNC(=O)c3ccc(O)c(-c4cccc([N+](=O)[O-])c4)c3)CC2)nc2ccccc21 (stereo not drawn) | 982 |
| COc1cc(Cc2cnc(N)nc2N)cc(OCCn2ccccc2=O)c1OC | 773 |
| c1ccc(OCCCCN2CCCCC2)cc1 | 537 |
| O=C(NCCCCCN1CCC(c2c[nH]c3ccccc23)C1)Nc1ccc(Cl)c(Cl)c1 (stereo not drawn) | 811 |
| O=C(NCC1COc2ccccc2O1)c1cnc2c(c1)nc(-c1c[nH]c(-c3ccccc3)n1)n2CCSCc1c(F)cccc1Cl (stereo not drawn) | 959 |
| Cc1ccccc1C1CCN(C2CCC(NC(=O)/C=C/c3cccc(F)c3)CC2)CC1 (stereo not drawn) | 1190 |
| N=C(N)Nc1nc(-c2cccc(NC(=O)NCc3ccc(OC(F)(F)F)cc3)c2)cs1 | 703 |
| CCc1ccc(-n2c(NC(=O)c3ccccc3)nc3ccc(S(=O)(=O)NC(C)C(C)C)cc32)cc1 (stereo not drawn) | 926 |

| SMILES | XC50 [nM] |
| --- | --- |
| CC(=O)Nc1cc(C(=O)Nc2cccc(-c3cccc(-c4nc5cccc(C)c5[nH]4)c3)c2)ccc1C | 329 |
| O=C(NCCCN1CCC(N2CCCCC2)CC1)C1=Cc2cc(Br)ccc2OC1 | 853 |
| Cc1cccc(C)c1CNc1ccnc2ccccc12 | 1200 |
| COc1ccc2nccc([C@@H](O)CN3CCC(NCc4ccc5c(c4)NC(=O)C(C)S5)CC3)c2c1 (stereo partly drawn) | 200 |
| O=C(/C=C/c1ccc(Cl)c(Cl)c1)NCCCCCN1CCC(NC(=O)Nc2ccc(Cl)cc2F)CC1 | 313 |
| c1ccc(COc2ccnc(NCCCOc3cccc(CN4CCCCC4)c3)c2)cc1 | 994 |
| CN(C)c1ccc(-c2csc(C(=O)NCC3CCN(Cc4cccc(C(F)(F)F)c4)C3)c2)cc1 (stereo not drawn) | 843 |
| O=C(Nc1ccc(OC2CCN(Cc3ccc(F)cc3)C2)c(Cl)c1)c1ccc(F)cc1 (stereo not drawn) | 490 |
| Cc1ccc(-n2c(=O)c3cccnc3n2CC(=O)Nc2cccc(C)c2C)cc1 | 865 |
| Cc1nc(NCc2ccccc2)cc(Nc2cc(NCc3ccccc3)nc(C)n2)n1 | 971 |
| Cc1nc2ccc(F)cc2n1C1CCN(C(=O)Cc2ccc(F)c(F)c2)CC1 | 1410 |
| CN(C)Cc1cccc2nc(-c3csc(Cc4cc(Cl)ccc4OCc4ccccc4)n3)[nH]c12 | 1120 |
| COc1cc2nc(N3CCC(CNC(=O)c4ccc(-c5ccc(C(F)(F)F)cc5)cc4)CC3)nc(N)c2cc1OC | 127 |
| CCc1ccccc1N1CCN(CCCC(=O)c2ccc(NC(=O)c3ccc(Cl)cc3)cc2)CC1 | 1310 |
| COc1cc2nc(N3CCN(C(=O)c4c(Cl)nsc4-c4ccccc4Cl)CC3)nc(N)c2cc1OC | 534 |
| N=C(N)c1cc(Br)cc(NC(=O)Nc2cc(Br)cc(C(=N)N)c2)c1 | 819 |
| CC(C)c1ccc(S(=O)(=O)Nc2cccc(CCN3CCC(N4CCCCC4)CC3)c2)cc1 | 1120 |
| O=C(N1CCN(c2ccnc3cc4c(cc23)N(Cc2ccccc2)CC4)CC1)C(F)(F)F | 257 |
| NCc1cccc(-c2cccc(CN(C(=O)Nc3ccccc3)C3CCN(Cc4ccccc4)CC3)c2)c1 | 829 |
| CCCCCNC(=N)c1ccc(OCCCCCOc2ccc(C(=N)NCCCCC)cc2)cc1 | 247 |
| CC(C)Cn1c(Sc2ccc(C#N)c([N+](=O)[O-])c2)nnc1-c1ccccc1 | 1090 |
| Nc1cccc(CNCc2ccc(-c3cccc(-c4nc5cc(F)ccc5[nH]4)c3)cc2)c1 | 213 |
| CCOc1cc(Cc2cnc(N)nc2N)cc(OCC)c1O | 1170 |
| COc1ccc(C(=O)Nc2ccc(Nc3nc(C)cc(N(C)C)n3)cc2)c(OC)c1 | 868 |
| COc1ccc(N2CCN(c3nc(N)c4cc(OC)c(OC)cc4n3)CC2C)cc1 (stereo not drawn) | 1420 |

| SMILES | XC50 [nM] |
| --- | --- |
| O=C(NCC1CCN(CCN2CCc3ccc4c(c3C2)OCO4)CC1)c1ccc(-c2ccc(C(F)(F)F)cc2)cc1 | 861 |
| Cn1cnc(-c2ccc3c(c2)CCN(CCC2CCC(NC(=O)/C=C/c4ccc(F)cc4)CC2)CC3)c1 (stereo not drawn) | 904 |
| Brc1cnc(NC2=NCCN2)c(Br)c1 | 335 |
| C[C@H](Cc1ccc(OCCCCCCOc2ccc(C[C@@H](C)NC[C@H](O)c3cccc(Cl)c3)cc2)cc1)NC[C@H](O)c1cccc(Cl)c1 | 296 |
| COc1cc(-c2ccc(-c3cnc(N)nc3OC)[nH]2)cc(OC)c1OC | 729 |
| CC(C)(CNC(=O)C1CCN(CCOc2ccc(F)c(F)c2)CC1)c1nc(-c2ccc(Cl)c(O)c2)c(-c2ccncc2)[nH]1 | 316 |
| Cc1cc2ccc(CNCCc3ccccc3Br)cc2nc1N | 514 |
| CCCC(CCC)n1ccc2c3c(N)nc(N)nc3ccc21 | 4.9 |
| COc1ccc2nccc(N3CCC(SCCNS(=O)(=O)c4ccc5c(c4)NC(=O)CS5)C3)c2n1 (stereo not drawn) | 1580 |
| c1csc(-c2nc(NCC3CCCO3)ncc2-c2ccsc2)n1 (stereo not drawn) | 487 |
| Cc1n[nH]c2ccc(-c3ccc4nccc(N5CCC(N)CC5)c4c3)cc12 | 591 |
| COc1nc2c(N3CCN(CCNCc4ccc5c(n4)NC(=O)CS5)CC3)ccnc2cc1F | 713 |
| CCc1ccc(O)c(-c2cc(C(=O)Nc3cccnc3)[nH]n2)c1 | 689 |
| O=C(Nc1ccc2c(c1)CCN2C1CCN(Cc2cccc3cc[nH]c23)C1)c1ccco1 (stereo not drawn) | 1210 |
| CN(C)Cc1c(O)ccc2[nH]c(-c3ccc(OC(F)(F)F)cc3)nc12 | 727 |
| Cn1c(Nc2cc(C(C)(C)C)on2)nc2cc(Nc3ccnc(Nc4cccc(CS(C)(=O)=O)c4)n3)ccc21 | 571 |
| CC(C)C[C@@H](/C=N/NC(N)=O)NC(=O)[C@H](CC(C)C)NC(=O)[C@H](CC(C)C)NC(=O)OCc1ccccc1 | 150 |
| CN(C)CCCOc1ccc(CNCC(C)(C)c2nc(-c3ccc(Cl)c(O)c3)c(-c3ccncc3)[nH]2)cc1 | 708 |
| COc1ccc2nccc([C@@H](O)CN3CCC(NCc4nc5c([N+](=O)[O-])cccc5[nH]4)CC3)c2c1 | 705 |
| Cc1ccc(O)c(C(=O)c2cc(C(=O)Nc3ccccc3C)c(=O)n(-c3ccccc3C)c2)c1 | 784 |
| CCCCCCCN(Cc1ccc(OC(C)(C)C(=O)OCC)cc1)C(=O)Nc1ccccc1OCC | 1030 |
| CC(C)CN1CCC(COc2ccc3ncn(-c4cc(O[C@H](C)c5ccccc5C(F)(F)F)c(C(N)=O)s4)c3c2)CC1 | 618 |
| Cc1ccc(Cn2cnc3cc(C(=O)Nc4ccc(-c5ccc(CN(C)C)cc5)cc4)ccc3c2=O)o1 | 1260 |
